Reference: PubChem BioAssay (NCI)
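Here, GI50 denotes the concentration required for 50% inhibition of growth. TGI marks complete inhibition of growth.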

Legend:
Assay in all cases: NCI tumour cell line growth inhibition, 384-well format
A498 renal = test system: A498 renal
A549 NSCLC = test system: A549 NSCLC
ACHN renal = test system: ACHN renal
BT-549 breast = test system: BT-549 breast
CAKI-1 renal = test system: CAKI-1 renal
COLO 205 colon = test system: COLO 205 colon
DU-145 prostate = test system: DU-145 prostate
EKVX NSCLC = test system: EKVX NSCLC
HCC-2998 colon = test system: HCC-2998 colon
HCT-116 colon = test system: HCT-116 colon
HCT-15 colon = test system: HCT-15 colon
HL-60(TB) leukemia = test system: HL-60(TB) leukemia
HOP-62 NSCLC = test system: HOP-62 NSCLC
HOP-92 NSCLC = test system: HOP-92 NSCLC
HS 578T breast = test system: HS 578T breast
HT29 colon = test system: HT29 colon
IGROV1 ovarian = test system: IGROV1 ovarian
KM12 colon = test system: KM12 colon
LOX IMVI melanoma = test system: LOX IMVI melanoma
M14 melanoma = test system: M14 melanoma
MALME-3M melanoma = test system: MALME-3M melanoma
MCF7 breast = test system: MCF7 breast
MDA-MB-231 breast = test system: MDA-MB-231 breast
MDA-MB-435 melanoma = test system: MDA-MB-435 melanoma
MDA-MB-468 breast = test system: MDA-MB-468 breast
MOLT-4 leukemia = test system: MOLT-4 leukemia
NCI-H226 lung = test system: NCI-H226 lung
NCI-H23 lung = test system: NCI-H23 lung
NCI-H322M lung = test system: NCI-H322M lung
NCI-H460 NSCLC = test system: NCI-H460 NSCLC
NCI-H522 lung = test system: NCI-H522 lung
NCI/ADR-RES ovarian = test system: NCI/ADR-RES ovarian
OVCAR-3 ovarian = test system: OVCAR-3 ovarian
OVCAR-4 ovarian = test system: OVCAR-4 ovarian
OVCAR-5 ovarian = test system: OVCAR-5 ovarian
OVCAR-8 ovarian = test system: OVCAR-8 ovarian
PC-3 prostate = test system: PC-3 prostate
RXF 393 renal = test system: RXF 393 renal
SF-268 CNS = test system: SF-268 CNS
SF-295 CNS = test system: SF-295 CNS
SF-539 CNS = test system: SF-539 CNS
SK-MEL-28 melanoma = test system: SK-MEL-28 melanoma
SK-MEL-5 melanoma = test system: SK-MEL-5 melanoma
SK-OV-3 ovarian = test system: SK-OV-3 ovarian
SN12C renal = test system: SN12C renal
SNB-19 CNS = test system: SNB-19 CNS
SNB-75 CNS = test system: SNB-75 CNS
SR leukemia = test system: SR leukemia
T-47D breast = test system: T-47D breast
TK-10 renal = test system: TK-10 renal
U251 glioblastoma = test system: U251 glioblastoma
UACC-257 melanoma = test system: UACC-257 melanoma
UACC-62 melanoma = test system: UACC-62 melanoma

## O=C(NO)c1cnc(N2CCN(S(=O)(=O)c3ccc4ccccc4c3)CC2)nc1
A498 renal
  GI50: 69.7 nM
  TGI: 205 nM
A549 NSCLC
  GI50: 69.2 nM
  TGI: 229 nM
ACHN renal
  GI50: 139 nM
  TGI: 294 nM
BT-549 breast
  GI50: 128 nM
  TGI: 319 nM
CAKI-1 renal
  GI50: 94.7 nM
  TGI: 222 nM
COLO 205 colon
  GI50: 129 nM
  TGI: 263 nM
DU-145 prostate
  GI50: 29.4 nM
  TGI: 95 nM
EKVX NSCLC
  GI50: 200 nM
  TGI: 911 nM
HCC-2998 colon
  GI50: 52.5 nM
  TGI: 188 nM
HCT-116 colon
  GI50: 32 nM
  TGI: 120 nM
HCT-15 colon
  GI50: 98.2 nM
  TGI: 272 nM
HL-60(TB) leukemia
  GI50: 15 nM
  TGI: 28.7 nM
HOP-62 NSCLC
  GI50: 69 nM
  TGI: 263 nM
HOP-92 NSCLC
  GI50: 102 nM
  TGI: 310 nM
HS 578T breast
  GI50: 86 nM
  TGI: 219 nM
HT29 colon
  GI50: 61.1 nM
  TGI: 197 nM
IGROV1 ovarian
  GI50: 65.8 nM
  TGI: 195 nM
KM12 colon
  GI50: 113 nM
  TGI: 467 nM
LOX IMVI melanoma
  GI50: 47.2 nM
  TGI: 157 nM
M14 melanoma
  GI50: 49.9 nM
  TGI: 171 nM
MALME-3M melanoma
  GI50: 25.8 nM
  TGI: 124 nM
MCF7 breast
  GI50: 44.6 nM
  TGI: 205 nM
MDA-MB-231 breast
  GI50: 129 nM
  TGI: 343 nM
MDA-MB-435 melanoma
  GI50: 125 nM
  TGI: 283 nM
MDA-MB-468 breast
  GI50: 68.4 nM
  TGI: 384 nM
MOLT-4 leukemia
  GI50: 18.1 nM
  TGI: 32.4 nM
NCI-H226 lung
  GI50: 136 nM
  TGI: 288 nM
NCI-H23 lung
  GI50: 93.4 nM
  TGI: 334 nM
NCI-H322M lung
  GI50: 79.2 nM
  TGI: 261 nM
NCI-H460 NSCLC
  GI50: 30.8 nM
  TGI: 138 nM
NCI-H522 lung
  GI50: 40.7 nM
  TGI: 163 nM
NCI/ADR-RES ovarian
  GI50: 15.5 nM
  TGI: 42.3 nM
OVCAR-3 ovarian
  GI50: 89.6 nM
  TGI: 216 nM
OVCAR-4 ovarian
  GI50: 140 nM
  TGI: 327 nM
OVCAR-5 ovarian
  GI50: 37 nM
  TGI: 137 nM
OVCAR-8 ovarian
  GI50: 19.2 nM
  TGI: 140 nM
PC-3 prostate
  GI50: 56.7 nM
  TGI: 239 nM
RXF 393 renal
  GI50: 121 nM
  TGI: 263 nM
SF-268 CNS
  GI50: 102 nM
  TGI: 246 nM
SF-295 CNS
  GI50: 119 nM
  TGI: 249 nM
SF-539 CNS
  GI50: 82.4 nM
  TGI: 409 nM
SK-MEL-28 melanoma
  GI50: 39.6 nM
  TGI: 146 nM
SK-MEL-5 melanoma
  GI50: 29.8 nM
  TGI: 61.2 nM
SK-OV-3 ovarian
  GI50: 85.4 nM
  TGI: 237 nM
SN12C renal
  GI50: 109 nM
  TGI: 233 nM
SNB-19 CNS
  GI50: 154 nM
  TGI: 299 nM
SNB-75 CNS
  GI50: 166 nM
  TGI: 1260 nM
SR leukemia
  GI50: 13.5 nM
  TGI: 42.4 nM
T-47D breast
  GI50: 38.9 nM
  TGI: 168 nM
TK-10 renal
  GI50: 64 nM
  TGI: 229 nM
U251 glioblastoma
  GI50: 50.4 nM
  TGI: 170 nM
UACC-257 melanoma
  GI50: 23.8 nM
  TGI: 85.3 nM
UACC-62 melanoma
  GI50: 41.7 nM
  TGI: 154 nM
